According to patent US20080318269A1, “Devices and Methods for the Analysis of Biofilm” (priority 2005, published 2008):
“Also recorded” adds a separate entry of the source. Where two headings read alike, the source gives them in different places.

Tests used:
Candida biofilms = experiment: Minimum biofilm eradication concentration assay, Candida spp.; format: cell-based; conditions: sessile (biofilm) Candida
Experimental: (§1) Biofilm formation and measurement of antimicrobial sensitivity of Candida and Aspergillus biofilms were performed using an assembly of the present invention. The device features a microtliter plate lid with 96 pegs or projections distributed on the lid. Each peg provided the surface for microorganism to adhere, colonize and form a uniform biofilm. The pegs fit precisely into the wells of a standard 96-well microtiter plate. The lid was used in conjunction with a base having special troughs for growing, washing, and incubating fungi. Colonies of Candida sp. were picked from 24 hour cultures on Sabouraud Dextrose agar (SDA) (BBL Microbiological Systems, Cockeysville, Md.) and placed into Mueller-Hinton Broth (MHB) (Difco Laboratories, Detroit Mich.) such that the suspension matched a McFarland standard of 1.0. This suspension was then diluted 1:30 in MHB, and 25 ml were pipetted into the trough chamber of the base. The closed assembly (lid with pegs positioned on the base) was placed on a Hoeffer Red Rocker (VWR, Scientific) set to rock the plates 3.5 cycles per minute in a 37° C. incubator. C. albicans and C. tropicalis were incubated aerobically, while C. glabrata was incubated in 10% CO2. It was determined in preliminary experiments that C. glabrata required 10% CO2 atmosphere for biofilms to form.
(§2) Biofilm susceptibility testing uses the pegged lid of the assembly, now containing biofilms formed after rocking in the tray for 24 hour. Each peg on the lid was gently washed once in […] of phosphate buffered saline solution (PBSS) in a 96-well microtiter plate (Falcon). The pegged lid was then transferred to another 96 well microtiter plate containing 2 fold dilutions antifungal agent in 200 μl of RPMI 1640 (Sigma, St. Louis, Mo.) or RPMI 1640 containing 1% DMSO (see test drug section). After the pegs were exposed to the drugs for 24 hours, the pegged lid was removed and gently rinsed twice in saline. The pegged lid was then placed on a 96 well plate containing RPMI 1640 recovery medium. The pegs were sonicated for 5 minutes (Candida spp.) or 7 minutes (Aspergillus) in an ultrasonicator to dislodge adherent cells into the recovery medium. Aliquots of 20 μl of the recovery medium were spot plated on SDA (Candida spp) or Rose Bengal Agar (A. fumigatus) to obtain the MBEC. The assembly was also used to determine the minimum inhibitory concentration (MIC) and minimum fungicidal concentration (MFC). The turbidity of the wells that contained the antibiotic and planktonic cells which were shed from the biofilm was measured at […] to obtain the MIC. A 20 μl sample from each well was also spot plated onto Sabouraud Dextrose agar (Candida spp) or Rose Bengal Agar (A. fumigatus) to obtain the MFC.
Drugs tested. […]

[1] = tested on: Staphylococcus aureus (Staph) planktonic bacteria; experiment: MBEC assay, Staph planktonic bacteria exposed to antibiotics and combinations (Example 5); format: cell-based; conditions: number of the 12 isolates from device associated infections that are resistant; 24 hours exposure
[2] = tested on: Staphylococcus aureus (Staph) biofilm; experiment: MBEC assay, Staph biofilms exposed to antibiotics and combinations (Example 5); format: cell-based; conditions: number of the 12 isolates from device associated infections that are resistant; 24 hours exposure
[3] = tested on: Pseudomonas aeruginosa (Ps) planktonic bacteria; experiment: MBEC assay, Ps planktonic bacteria exposed to antibiotics and combinations (Example 5); format: cell-based; conditions: number of the 12 isolates from Cystic Fibrosis patients that are resistant; 24 hours exposure
[4] = tested on: Pseudomonas aeruginosa (Ps) biofilm; experiment: MBEC assay, Ps biofilms exposed to antibiotics and combinations (Example 5); format: cell-based; conditions: number of the 12 isolates from Cystic Fibrosis patients that are resistant; 24 hours exposure
[5] = tested on: P. aeruginosa planktonic bacteria shed from the biofilm; experiment: P. aeruginosa biofilm assay kit, planktonic MIC read on challenge plate (Example 8); format: cell-based, Pseudomonas aeruginosa; conditions: challenge 35° C. for 24 hours; breakpoint concentrations
P. aeruginosa biofilm = P. aeruginosa biofilm assay kit, biofilm MBEC read on recovery plate (Example 8); format: cell-based, Pseudomonas aeruginosa; conditions: challenge 35° C. for 24 hours; recovery 20 to 24 hours; breakpoint concentrations
[6] = tested on: Staphylococcus aureus planktonic forms; experiment: Staphylococcus test plate, planktonic sensitivity (Example 9); format: cell-based; conditions: figure in the label = antibiotic concentration, breakpoint concentrations
[7] = tested on: Staphylococcus aureus biofilm; experiment: Staphylococcus test plate, biofilm sensitivity (Example 9); format: cell-based; conditions: figure in the label = antibiotic concentration, breakpoint concentrations
[8] = tested on: planktonic cultures of C. albicans; experiment: Planktonic sensitivity (MIC, MFC) of C. albicans to antifungal agents; format: cell-based, Candida albicans
Experimental: as §2
Minimum Inhibitory Concentrations (MIC) and Minimum Fungicidal Concentrations (MFC) were determined according to the guidelines of the National Committee for Clinical laboratory Standards (NCCLS). Briefly, Candida sp. were maintained on polystyrene spheres at −70° C. until plating. […]
(§3) The test wells were then incubated at 37° C. for 24 hours with the antifungal drugs. MICs for Candida were obtained after incubation by reading the turbidity at 650 nm on a microtiter plate reader (Softmax, VWR). […] MFCs were determined for Aspergillus by plating 100 μl from each well onto Rose Bengal Agar, followed by spreading with a sterile glass spreader. […]

[9] = tested on: biofilm cells of C. albicans; experiment: Minimum biofilm eradication concentration assay, C. albicans; format: cell-based, Candida albicans; conditions: 24 hours exposure
Experimental: as §1, with “The closed assembly (lid with pegs positioned on the base) was placed on a Hoeffer Red Rocker (VWR, Scientific) set to rock the plates 3.5 cycles per minute in a 37° C. incubator. C. albicans and C. tropicalis were incubated aerobically, while C. glabrata was incubated in 10% CO2.” left out
Biofilm susceptibility testing uses the pegged lid of the assembly, now containing biofilms formed after rocking in the tray for 24 hour. […] The turbidity of the wells that contained the antibiotic and planktonic cells which were shed from the biofilm was measured at […] to obtain the MIC. […]

[10] = tested on: invasive pulmonary, sinus and cerebral aspergillosis; conditions: cited from earlier work
[11] = tested on: C. tropicalis planktonic cells; experiment: Planktonic sensitivity (MIC) of C. tropicalis to antifungal agents; format: cell-based, Candida tropicalis; conditions: C. tropicalis strain tested
Experimental: Biofilm susceptibility testing uses the pegged lid of the assembly, now containing biofilms formed after rocking in the tray for 24 hour. Each peg on the lid was gently washed once in […] of phosphate buffered saline solution (PBSS) in a 96-well microtiter plate (Falcon). The pegged lid was then transferred to another 96 well microtiter plate containing 2 fold dilutions antifungal agent in 200 μl of RPMI 1640 (Sigma, St. Louis, Mo.) or RPMI 1640 containing 1% DMSO (see test drug section). After the pegs were exposed to the drugs for 24 hours, the pegged lid was removed and gently rinsed twice in saline. The pegged lid was then placed on a 96 well plate containing RPMI 1640 recovery medium. […] The turbidity of the wells that contained the antibiotic and planktonic cells which were shed from the biofilm was measured at […] to obtain the MIC. […]
Minimum Inhibitory Concentrations (MIC) and Minimum Fungicidal Concentrations (MFC) were determined according to the guidelines of the National Committee for Clinical laboratory Standards (NCCLS). […]
as §3

[12] = planktonic cultures of C. albicans, 24 hours

Polymyxin B
effectiveness against Candida growing as a biofilm (Candida biofilms): ineffective

gentamicin [GM]
Staph resistance to individual antibiotics and antibiotic combinations, Planktonic [1]: 6
Staph resistance to individual antibiotics and antibiotic combinations, Biofilm [2]: 10
Ps resistance to individual antibiotics and antibiotic combinations, Planktonic [3]: 8
Ps resistance to individual antibiotics and antibiotic combinations, Biofilm [4]: 12
Number of P. aeruginosa isolates resistant to individual antibiotics and antibiotic combinations, Planktonic [5]: 8
Number of P. aeruginosa isolates resistant to individual antibiotics and antibiotic combinations, Biofilm (P. aeruginosa biofilm): 12
Number of Staphylococcus aureus isolates resistant to individual antibiotics and antibiotic combinations, Planktonic ([6]; listed as GM2): 4
Number of Staphylococcus aureus isolates resistant to individual antibiotics and antibiotic combinations, Planktonic ([6]; listed as GM4): 3
Number of Staphylococcus aureus isolates resistant to individual antibiotics and antibiotic combinations, Biofilm ([7]; listed as GM2): 11
Number of Staphylococcus aureus isolates resistant to individual antibiotics and antibiotic combinations, Biofilm ([7]; listed as GM4): 10

C[C@@H]1[C@H](O)[C@@H](C)/C=C/C=C/CC/C=C/C=C/C=C/C=C/C(O[C@H]2O[C@H](C)[C@@H](O)[C@H](N)[C@@H]2O)CC2O[C@](O)(CC(O)C(O)CCC(O)CC(O)CC(O)CC(=O)O[C@H]1C)CC(O)C2C(=O)O (some centres unmarked) [nystatin, Nystatin]
effectiveness against Candida growing as a biofilm (Candida biofilms): effective; also recorded: most effective

Colistin [CLO]
Ps resistance to individual antibiotics and antibiotic combinations, Planktonic [3]: 2
Ps resistance to individual antibiotics and antibiotic combinations, Biofilm [4]: 12
Number of P. aeruginosa isolates resistant to individual antibiotics and antibiotic combinations, Planktonic [5]: 2
Number of P. aeruginosa isolates resistant to individual antibiotics and antibiotic combinations, Biofilm (P. aeruginosa biofilm): 12

C[C@@H]1[C@H](O)[C@@H](C)/C=C/C=C/C=C/C=C/C=C/C=C/C=C/[C@H](O[C@@H]2O[C@H](C)[C@@H](O)[C@H](N)[C@@H]2O)C[C@@H]2O[C@](O)(C[C@@H](O)C[C@@H](O)[C@H](O)CC[C@@H](O)C[C@@H](O)CC(=O)O[C@H]1C)C[C@H](O)[C@H]2C(=O)O [amphotericin B, Amphotericin B]
average MFC [8, 12]: 0.02 µg/mL
average MIC [8, 12]: 0.09 µg/mL
average concentration required to kill biofilm cells (MBEC) [9]: 12 µg/mL
effectiveness against Candida growing as a biofilm (Candida biofilms): most effective
crude mortality rate of treated patients ([10]; invasive cerebral aspergillosis): 99%
crude mortality rate of treated patients ([10]; invasive pulmonary aspergillosis): 86%
crude mortality rate of treated patients ([10]; invasive sinus aspergillosis): 66%

OC(Cn1cncn1)(Cn1cncn1)c1ccc(F)cc1F [fluconazole, Fluconazole]
classification by MIC criterion (MIC less than or equal to 8 μg/ml = susceptible) ([8]; C. albicans strain tested, planktonic): susceptible
classification by MIC criterion (MIC less than or equal to 8 μg/ml = susceptible) [11]: susceptible

COC1=CC(=O)C[C@@H](C)[C@]12Oc1c(Cl)c(OC)cc(OC)c1C2=O [Griseofulvin]
effectiveness against Candida growing as a biofilm (Candida biofilms): ineffective
